{"source": "patent US9656953B2", "about": "“Inhibition of cell proliferation” (University of South Florida, priority 2005, dated 2017)", "key": {"[1]": {"system": "cyclin D", "assay": "Western/IP-western, cyclin D level and association with Rb", "assay_type": "cell-based, human", "details": "IP-western", "source_text": "Lysate preparation, pmmunoprecipitation, and pestern plotting."}, "[2]": {"system": "Aspc1, PANC1, and CAPAN2 pancreatic cancer cells", "assay": "BrdU incorporation, S-phase entry, pancreatic cancer cells", "assay_type": "cell-based", "details": "range over three pancreatic cell lines", "description": "Proliferation assays. Bromodeoxyuridine (BrdU) labeling kits were obtained from Roche Biochemicals (Indianapolis, Ind.). Cells were plated in poly-D-lysine coated chamber slides at a density of 10,000 cells per well and rendered quiescent by serum starvation for 24 hours. Cells were then re-stimulated with serum in the presence or absence of the indicated drugs for 18 h. S-phase cells were visualized by microscopy and quantitated by counting 3 fields of 100 in quadruplicate."}, "[3]": {"system": "A549-sh8 tumors", "assay": "A549-sh8 (Rb shRNA) xenograft in nude mice", "assay_type": "in vivo", "details": "150 mpk orally", "description": "Animal Studies. Nude mice (Charles River, Wilminton, Mass., USA) were maintained in accordance with Institutional Animal Care and Use Committee (IAUCUC) procedures and guidelines. A549 cells were harvested and resuspended in PBS, and then injected s.c. into the right and left flanks (10×10^6 cells per flank) of 8-week old female nude mice as reported previously (Sun 99). When tumors reached about 100-200 mm^3, animals were dosed intraperitoneally i.p. or orally by gavage with 0.1 mL solution once daily. Control animals received a vehicle, whereas treated animals were given 3a or RRD-238a at the indicated doses. The tumor volumes were determined by measuring the length (l) and the width (w) and calculating the volume (V=lw^2/2) as described previously (Sun 99). Statistical significance between control and treated animals were evaluated using Student's t-test.\nAthymic nude mice were implanted with 1×10^7 A549 cells bilaterally and the tumors were allowed to reach 200 mm^3 in size before treatment began. […] Furthermore, to examine whether 3a could affect the growth of tumors lacking Rb in vivo, sh6 and sh8 (shRNA for Rb) cell lines were implanted into the flanks of nude mice. The mice were given 3a orally at 150 mpk and the control groups were administered the vehicle."}}, "note": "Entries after “also recorded” stand apart in the source; their conditions may differ."}
{"smiles": "Cl.N=C(N)SCc1ccc(Cl)cc1Cl", "note": "[Compound 3a]", "values": [{"measurement": "level of cyclin D and its association with Rb", "setting": "[1]", "value": "tended to reduce the levels of cyclin D as well as its association with Rb; also recorded: reduced"}, {"measurement": "inhibition of S-phase entry, Aspc1, PANC1, CAPAN2", "setting": "[2]", "value": "50-65%"}, {"measurement": "tumor growth, A549-sh8 tumors lacking Rb", "setting": "[3]", "value": "unable to inhibit tumor growth; also recorded: did not respond"}]}
